# Paper PMC4265309 (Chemical biology & drug design, 2014)
# Key:
# [1] = tested on: CHO-K1 cells; experiment: Peptide induced cell lysis; format: cell-based; settings: CHO-K1, normal cell culture conditions, no peptide (Figures 2 and 4)
# [2] = tested on: CHO-K1 cells; experiment: Measurement of cell surface pH, CHO-K1; format: cell-based; settings: from pH=8.4 to pH=6.90, medium pH=7.4
# [3] = tested on: A549 and CCD-13Lu cells
# [4] = Peptide self-assembly and aggregation in solution; format: physicochemical
# [5] = pH sensitivity of lytic activity; format: biochemical; settings: ratio calculated from the average IC50 values of a peptide at pH=7.4 and pH=5.5
# [6] = Peptide circular dichroism; format: physicochemical; settings: secondary structure by CD, 25 °C
Compound,pH sensitivity [5],Structure pH=6.5 [6],Structure pH=7.4 [6],other results
CO/C1=C\C(C)=C\[C@@H](C)[C@@H](O)[C@@H](C)C/C(C)=C/C=C/[C@H](OC)[C@@H]([C@@H](C)[C@@H](O)[C@H](C)[C@@]2(O)C[C@@H](O)[C@H](C)[C@@H](C(C)C)O2)OC1=O [Bafilomycin A1],,,,Effect on cell viability [1]: very limited effects on cell viability
"Nc1ncnc2c1nc(Sc1ccc(Cl)cc1)n2[C@@H]1O[C@@H]2COP(=O)(O)O[C@H]2[C@H]1O [Peptide 8-CPT-cAMP, 8-CPT-cAMP]",,,,Time to reduction of cell surface pH [2]: ≤ 30 minutes; Effect on cell viability [1]: no effects on the viability
FLGALFKALSKLL [PTP-7],,,,Cytotoxicity to A549 relative to CCD-13Lu [3]: equally active to both cells
FLGALFRALSHLL [CL-7],2.2,Coil,α-helix,"Aggregation at physiological pH ([4]; 40 µM peptide, 1,8-ANS 20 µM, excitation 369 nm, SEM at pH=7.4): underwent self-assembly at physiological pH; Stability of peptide aggregates under acidic conditions ([4]; 1,8-ANS 20 µM, 40 µM peptide, particle analysis at 80 µM): unstable and dissolved under acidic conditions"
FLGALFRALSRLL [CL-1],1.2,Coil,Coil,
WLGALFHALSKLL [CL-9],3.0,Coil,α-helix,
WLGALFKALSHLL [CL-10],2.5,Coil,α-helix,
WLGALFKALSHLLGHHPH [CL-22],13.8,Coil,α-helix,
